Reference: patent publication US12485106B2, “Methods of treating fibrotic liver diseases or conditions with indeglitazar” (PLEIOGENIX INC., priority 2023, dated 2025)
“Also recorded” adds a separate entry of the source.

Legend:
[1] = tested on: adipocyte differentiation; settings: compared with full PPAR γ-agonists like pioglitazone; cited from earlier work
PPARδ = target: T1, PPARδ (Homo sapiens, UniProt Q03181); settings: cited from earlier work
T1 sequence (Q03181 1-441): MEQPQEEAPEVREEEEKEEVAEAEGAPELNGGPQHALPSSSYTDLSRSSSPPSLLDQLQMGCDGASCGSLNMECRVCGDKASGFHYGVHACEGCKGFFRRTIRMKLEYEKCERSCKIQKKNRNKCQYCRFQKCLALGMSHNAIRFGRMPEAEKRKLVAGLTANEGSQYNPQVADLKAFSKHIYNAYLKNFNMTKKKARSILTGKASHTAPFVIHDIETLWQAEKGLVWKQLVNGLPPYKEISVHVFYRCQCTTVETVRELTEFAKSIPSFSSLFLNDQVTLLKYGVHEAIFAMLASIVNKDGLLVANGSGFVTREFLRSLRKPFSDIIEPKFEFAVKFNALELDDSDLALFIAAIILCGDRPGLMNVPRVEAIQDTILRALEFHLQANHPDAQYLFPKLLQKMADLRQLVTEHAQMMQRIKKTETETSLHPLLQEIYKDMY

[2] = tested on: mouse model of human alcoholic hepatitis; test: AH (NIAAA) mouse model, 8-week efficacy and safety study, alone and with prednisolone
From the text: Mice were fed with the ethanol diet for four weeks, followed by 4 weeks of intervention (8 weeks total treatment).
Livers were collected at the end-point from all mice and weighed. Liver samples were processed for histology to assess steatosis, inflammatory infiltrates and fibrosis. Briefly, liver tissue was fixed in 4% paraformaldehyde and paraffin-embedded, sectioned into 5 m thickness, and stained with hematoxylin-eosin (H&E), Oil-Red O staining, and Masson's trichrome staining.
Safety testing: The safety of indeglitazar treatment was assessed by body weight measurements and full necropsy at endpoint. Mice were terminated from the experiment by isoflurane anesthesia and blood was collected by a cardiac bleed into EDTA-treated tubes, and then centrifuged to obtain plasma to conduct clinical chemistry including full liver and renal toxicology panel. A portion of the liver was analyzed for liver triglycerides and cholesterol levels by biochemical assays. […] Hearts were weighted and fixed in 10% NBF, paraffin embedded, and sectioned into 4-μm thick slices. H&E staining was used to investigate myocardial cell hypertrophy, and ventricle diameters by microscopy.

PPARα = target: T2, PPARα (Homo sapiens, UniProt Q07869); settings: cited from earlier work
T2 sequence (Q07869 1-468): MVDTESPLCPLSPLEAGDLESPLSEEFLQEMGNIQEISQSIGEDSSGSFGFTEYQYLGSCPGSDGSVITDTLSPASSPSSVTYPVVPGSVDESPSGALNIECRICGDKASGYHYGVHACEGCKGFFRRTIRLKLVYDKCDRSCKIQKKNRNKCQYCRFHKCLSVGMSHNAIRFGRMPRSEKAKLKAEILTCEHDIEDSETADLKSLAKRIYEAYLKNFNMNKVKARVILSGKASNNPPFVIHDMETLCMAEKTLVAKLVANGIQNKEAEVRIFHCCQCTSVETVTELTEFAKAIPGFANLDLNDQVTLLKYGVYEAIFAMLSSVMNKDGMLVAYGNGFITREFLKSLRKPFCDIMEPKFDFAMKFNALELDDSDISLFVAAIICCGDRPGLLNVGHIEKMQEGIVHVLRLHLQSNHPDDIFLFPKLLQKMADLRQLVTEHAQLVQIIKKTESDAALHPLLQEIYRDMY

[3] = Parallel Artificial Membrane Permeability-Blood Brain Barrier Assay (PMBBB-096); type: in vitro ADME; settings: compared to promazine HCl (high permeability control)
Experimental: Indeglitazar was evaluated using the Parallel Artificial Membrane Permeability-Blood Brain Barrier Assay (PMBBB-096; BioAssay Systems, Hayward, CA).

[4] = tested on: carbon tetrachloride (CCl4)-treated mice model of human NAFLD, NASH, and hepatic fibrosis; test: CCl4-treated mouse model of human NAFLD, NASH and hepatic fibrosis; type: in vivo; settings: vs CCl4 vehicle
From the text: Mouse model generation and treatment. C57Bl/6 mice (6-week-old, males) were purchased from Jackson Laboratories and were housed under specific pathogen-free conditions. All experiment protocols were approved by the Institutional Animal Care and Use Committee (IACUC) of Pleiogenix, or its research partners. The mice were acclimated for a minimum of seven days prior to initiation of treatment (Sanyal A J et al., N Engl J Med, (2010), 362:1675-85). The mice were fed Purina normal chow and drinking water ad libitum during the acclimation period. After acclimation, the mice were randomized based on body weight (bw). A total of 22 mice were used; and treated as described in Table 1. Briefly, on day 0, mice were treated according to Table 4.
Liver fibrosis was induced as previously described (Nesto R W et al., Circulation, (2003), 108:2941-8). Carbon tetrachloride (CCl4), formulated in mineral oil, was administered twice per week i.p. at 1 μl/gram body weight throughout the study duration (8 wks). Indeglitazar was administered daily by oral gavage at 30 mg/kg body weight throughout the study duration (8 wks). Mice were observed daily for clinical signs. Any observations noted outside of the scheduled observations were documented as unscheduled. Assessments included, but were not be limited to, assessment of activity, posture, respiration, emesis, seizure, hydration status, injection site irritation, and overall body condition. The absence or presence of findings were recorded.
Individual body weights were recorded on all animals prior to the initiation of the study and weekly body weights were recorded. Blood was collected and plasma was measured for alanine aminotransferase (ALT) and aspartate aminotransferase (AST) and on weeks 0 (baseline), 4, and wk 8 (terminal). At the end of the study, liver necropsy was performed including weighing and processing for histology, and frozen at −80° C. for the following downstream analyses: Liver histopathology: hematoxyline and eosin (H&E) staining (Kumar P et al., PLOS ONE, (2014), 9:e110405); Sirius Red staining for fibrosis (Nesto R W et al., Circulation, (2003), 108:2941-8). Biochemical markers of human hepatic fibrosis and anti-fibrotic adipokine, adiponectin: hepatic hydroxyproline (Nesto R W et al., Circulation, (2003), 108:2941-8); plasma TGFβ1 (Fischer A H et al., CSH Protoc, (2008), 2008:pdb.prot4986); adiponectin (Guo J C et al., Zhonghua Shi Yan He Lin Chuang Bing Du Xue Za Zhi, (2008), 22:354-7).
[…]

[5] = tested on: adiponectin gene expression; settings: compared with full PPAR γ-agonists like pioglitazone; cited from earlier work
[6] = indeglitazar 50 mg/kg, prednisolone 10 mg/kg, vs EtOH-treated vehicle control
[7] = indeglitazar 50 mg/kg, prednisolone 10 mg/kg, vs ethanol-treated vehicle control
[8] = indeglitazar 50 mg/kg, prednisolone 10 mg/kg, vs vehicle+EtOH
[9] = indeglitazar 50 mg/kg/day, prednisolone 10 mg/kg/day, vs ethanol-treated vehicle control
[10] = indeglitazar 50 mg/kg/day, prednisolone 10 mg/kg/day, vs ethanol-treated vehicle control, listed as indeglitazar
[11] = 30 mg/kg/day oral gavage, 8 wks, male mice

Compound: COc1ccc(S(=O)(=O)n2cc(CCC(=O)O)c3cc(OC)ccc32)cc1 [Indeglitazar, 3-[5-methoxy-1-(4-methoxybenzenesulfonyl)-1H-indol-3-yl]-propanoic acid]
- promoting adipocyte differentiation [1]: less potent
- agonism towards PPARδ (PPARδ): partial agonism
- liver histopathology: steatosis, hepatocellular karyomegaly, and ballooning ([2]; indeglitazar 50 mg/kg, prednisolone 10 mg/kg, data not shown): reduced significantly
- effect on liver hydroxyproline [2, 6]: significant decrease
- effect on plasma adiponectin [2, 6]: significant increase
- effect on ALT [2, 7]: significant decreases
- effect on AST [2, 7]: significant decreases
- effect on plasma TGFβ [2, 7]: significant decrease
- effect on total bilirubin [2, 7]: decrease; also recorded: significant decreases
- decrease of liver TG [2, 8]: 28%
- decrease of plasma TGFβ [2, 8]: 66%
- decrease of plasma TNF-α [2, 8]: 50%
- increase of adiponectin [2, 8]: 31%
- decrease of hydroxyproline ([2]; indeglitazar 50 mg/kg, prednisolone 10 mg/kg, vs vehicle+EtOH, P<0.0001): 31%
- effect on body weight [2, 9]: no significant effect
- effect on gamma-glutamyl transferase (GGT) [2, 9]: no significant effect
- effect on heart weight (actual) [2, 9]: no significant effect
- effect on heart weight divided by body weight×100 [2, 9]: no significant effect
- effect on body weight [2, 10]: Neither EtOH (vs no EtOH vehicle control), indeglitazar, or prednisolone had a significant effect
- effect on heart weight (actual) [2, 10]: Neither EtOH (vs no EtOH vehicle control), indeglitazar, or prednisolone had a significant effect
- effect on overall survival ([2]; indeglitazar 50 mg/kg/day, prednisolone 10 mg/kg/day, vs ethanol-treated vehicle control, male and female mice): significant increase; also recorded: significantly increased
- agonism against PPARα (PPARα): full agonism
- ability to cross the blood-brain barrier [3]: ~15%
- effect on liver hydroxyproline [4, 11]: significantly reduces
- effect on plasma TGF-β1 [4, 11]: significantly reduces
- effect on plasma adiponectin [4, 11]: significantly increases
- magnitude of increase of plasma adiponectin ([4]; 30 mg/kg/day): approximately 125%
- magnitude of reduction of hydroxyproline ([4]; 30 mg/kg/day): approximately 25%
- magnitude of reduction of plasma TGFβ1 ([4]; 30 mg/kg/day): approximately 30%
- stimulating adiponectin gene expression [5]: only partially effective
